Data taken from patent US12649751B2 (Arcus Biosciences, Inc., priority 2022, dated 2026).
Read-outs that look alike come from different tables or passages of the source.

Legend:
HPK1 = HPK1 (Homo sapiens, UniProt Q92918); assay: HPK1 Biochemical Assay (ADP-Glo luminescence; low ATP 10 μM or high ATP 200 μM)
[1] = tested on: p-SLP-76 (Ser376) in Jurkat cells; assay: pSLP76 Cellular Assay (AlphaLISA SureFire Ultra p-SLP-76 (Ser376), anti-CD3 activated Jurkat cells); type: cell-based; conditions: Homo sapiens, read-out: Cellular Potency
Summary of the method: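 Jurkat cells, serum-starved overnight in Opti-MEM then in HBSS, preincubated 1 h at 37 °C with 22-point 2-fold compound dilutions, then stimulated with anti-CD3 (0.025 mg/ml added solution) for 45 min. Lysate p-SLP-76 (Ser376) measured by AlphaLISA at 570 nm; IC50 from 4-parameter logistic fit.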

[2] = HPK1 ADP-Glo assay, high ATP (200 μM ATP, 5 nM HPK1), read-out: Biochemical Potency (high ATP)
[3] = pSLP76 (Ser376) AlphaLISA, anti-CD3 activated Jurkat cells
[4] = 2 nM HPK1, 10 μM ATP, read-out: Biochemical Potency (low ATP)
[5] = Jurkat cells, anti-CD3 stimulation, pSLP76
[6] = HPK1 ADP-Glo assay, low ATP (10 μM ATP, 2 nM HPK1), read-out: Biochemical Potency (low ATP)

HPK1, sequence (Q92918 whole entry, species assumed): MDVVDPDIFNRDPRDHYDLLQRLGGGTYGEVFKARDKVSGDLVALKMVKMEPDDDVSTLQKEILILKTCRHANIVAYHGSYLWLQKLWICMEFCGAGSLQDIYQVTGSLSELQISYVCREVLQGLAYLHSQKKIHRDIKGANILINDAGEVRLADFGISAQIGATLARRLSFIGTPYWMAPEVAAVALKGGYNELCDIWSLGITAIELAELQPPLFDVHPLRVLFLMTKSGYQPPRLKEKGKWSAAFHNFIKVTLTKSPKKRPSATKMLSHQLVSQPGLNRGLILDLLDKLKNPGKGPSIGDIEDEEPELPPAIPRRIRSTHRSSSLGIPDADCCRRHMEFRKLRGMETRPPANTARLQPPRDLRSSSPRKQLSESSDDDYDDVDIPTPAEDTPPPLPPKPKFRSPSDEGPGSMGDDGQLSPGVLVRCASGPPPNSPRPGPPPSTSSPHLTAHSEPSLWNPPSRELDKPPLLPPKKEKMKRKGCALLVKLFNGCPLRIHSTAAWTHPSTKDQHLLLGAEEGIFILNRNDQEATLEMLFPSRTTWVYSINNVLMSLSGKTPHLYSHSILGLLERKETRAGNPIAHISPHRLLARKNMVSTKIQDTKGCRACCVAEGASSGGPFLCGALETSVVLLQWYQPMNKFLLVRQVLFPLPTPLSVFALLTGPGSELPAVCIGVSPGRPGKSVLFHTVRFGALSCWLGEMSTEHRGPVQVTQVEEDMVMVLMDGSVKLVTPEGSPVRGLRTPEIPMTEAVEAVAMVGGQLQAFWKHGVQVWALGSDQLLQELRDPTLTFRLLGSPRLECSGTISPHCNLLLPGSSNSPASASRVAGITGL

Compound | IC50 (HPK1; [2]) | IC50 [1, 3] | IC50 (HPK1; [4]) | IC50 [1, 5] | IC50 (HPK1; [6])
CCN1C[C@@H]2C[C@H]1CN2c1nc(C)cc(Nc2cc3nc(-c4cccc(C(=O)N(C)C5CCN(S(C)(=O)=O)CC5)c4)sc3cn2)n1 [Example 311, N-(1-mesyl-4-piperidyl)-N-methylm-[6-(2-{(1S,4S)-5-ethyl-2,5-diazabicyclo[2.2.1]hept-2-yl}-6-methyl-4-pyrimidinylamino)-3-thia-1,5-diaza-2-indenyl]benzamide] | < 100 nM | 100 to 1000 nM | – | – | –
CCN1C[C@@H]2C[C@H]1CN2c1nc(C)cc(Nc2cc3nc(-c4cccc(C(=O)N5CC[C@H](C)C5)c4)sc3cn2)n1 [Example 533] | < 100 nM | < 100 nM | – | – | –
CN1C[C@@H]2C[C@H]1CN2c1cncc(Nc2cc3nc(-c4cccc(C(C)(O)C(F)(F)F)c4)sc3cn2)n1 (stereo partly shown) [Example 410] | < 100 nM | 100 to 1000 nM | – | – | < 100 nM
Cc1cc(Nc2cc3nc(-c4cccc(S(=O)(=O)N5CCCCC5)c4)sc3cn2)nc(N2C[C@@H]3C[C@H]2CN3C)n1 [Example 367] | < 100 nM | 1000 to 5000 nM | – | – | –
Cc1cc(Nc2cc3nc(-c4cncc(-c5ncccc5C)c4)sc3cn2)nc(N2C[C@@H]3C[C@H]2CN3CCO)n1 [Example 318, 2-[(1S,4S)-5-{6-methyl-4-[2-(3-methyl-2,3′-bipyridyl-5′-yl)-3-thia-1,5-diaza-6-indenylamino]-2-pyrimidinyl}-2,5-diazabicyclo[2.2.1]hept-2-yl]ethanol] | < 100 nM | < 100 nM | – | – | –
Cc1cc(Nc2cc3nc(-c4cccc(C(=O)N5CCOCC5)c4)sc3cn2)nc(N2C[C@@H]3C[C@H]2CN3CCO)n1 [Example 565] | < 100 nM | 100 to 1000 nM | – | – | –
Cc1cc(Nc2cc3nc(-c4cccc(C(=O)N[C@@H]5CCCOC5)c4)sc3cn2)nc(N2C[C@@H]3C[C@H]2CN3CCO)n1 [Example 540] | < 100 nM | < 100 nM | – | – | –
Cc1cc(Nc2cc3nc(-c4ccnc(N5CCCOCC5)c4)sc3cn2)nc(N2C[C@@H]3C[C@H]2CN3CCO)n1 [Example 449] | < 100 nM | 100 to 1000 nM | – | – | –
Cc1cc(Nc2cc3nc(-c4cnn(C)c4)sc3cn2)nc(N2C[C@@H]3C[C@H]2CN3C[C@@H](C)O)n1 [Example 499] | < 100 nM | < 100 nM | – | – | –
CN1C[C@@H]2C[C@H]1CN2c1cncc(Nc2cc3nc(-c4cccc(S(=O)(=O)N(C)C)c4)sc3cn2)n1 [Example 414] | – | 1000 to 5000 nM | – | – | < 100 nM
Cc1cc(Nc2cc3nc(-c4cnn(CC5CCCCO5)c4)sc3cn2)nc(N2C[C@@H]3C[C@H]2CN3C)n1 (stereo partly shown) [Example 363] | < 100 nM | 100 to 1000 nM | – | – | –
CCN1C[C@@H]2C[C@H]1CN2c1nc(C)cc(Nc2cc3nc(-c4cccc(C(=O)NC5CCCC5)c4)sc3cn2)n1 [Example 515] | < 100 nM | < 100 nM | – | – | –
CCN1C[C@@H]2C[C@H]1CN2c1nc(C)cc(Nc2cc3nc(Oc4cccnc4)sc3cn2)n1 [Example 484] | < 100 nM | < 100 nM | – | – | –
CCN(CC)S(=O)(=O)c1cc(C)cc(-c2nc3cc(Nc4cc(C)nc(N5C[C@@H]6C[C@H]5CN6CCO)n4)ncc3s2)c1 [Example 343] | < 100 nM | 1000 to 5000 nM | – | – | –
OCCN1C[C@@H]2C[C@H]1CN2c1nccc(Nc2cc3nc(-c4cnn(CC5CC5)c4)sc3cn2)n1 [Example 357] | < 100 nM | 100 to 1000 nM | – | – | –
Cc1cc(Nc2cc3nc(-c4ccc5c(c4)S(=O)(=O)N(C)C5)sc3cn2)nc(N2C[C@@H]3C[C@H]2CN3C)n1 [Example 374] | 100 to 1000 nM | 5000 to 25000 nM | – | – | –
Cc1cc(Nc2cc3nc(-c4cccc(C(=O)N(C)C)c4)sc3cn2)nc(N2C[C@@H]3C[C@H]2CN3CCOCCO)n1 [Example 502] | < 100 nM | 100 to 1000 nM | – | – | –
Cc1cc(Nc2cc3nc(-c4cccc(C(=O)N5CCC[C@H]5C)c4)sc3cn2)nc(N2C[C@@H]3C[C@H]2CN3CCO)n1 [Example 550] | < 100 nM | 100 to 1000 nM | – | – | –
CCN1C[C@@H]2C[C@H]1CN2c1nc(C)cc(Nc2cc3nc(-c4cccc(C(=O)N5CC[C@@H](C)C5)c4)sc3cn2)n1 [Example 305, [(R)-3-methyl-1-pyrrolidinyl]{m-[6-(2-{(1S,4S)-5-ethyl-2,5-diazabicyclo[2.2.1]hept-2-yl}-6-methyl-4-pyrimidinylamino)-3-thia-1,5-diaza-2-indenyl]phenyl}methanone] | < 100 nM | < 100 nM | – | – | –
Cc1cc(Nc2cc3nc(-c4ccnc(N5CC6CCC(C5)O6)c4)sc3cn2)nc(N2C[C@@H]3C[C@H]2CN3CCO)n1 [Example 448] | < 100 nM | 100 to 1000 nM | – | – | –
CCN1C[C@@H]2C[C@H]1CN2c1nc(C)cc(Nc2cc3nc(-c4ccnc(C(=O)NC5CCCC5)c4)sc3cn2)n1 [Example 514] | < 100 nM | 100 to 1000 nM | – | – | –
c1cnn(-c2nc3cc(Nc4ccnc(N5C[C@@H]6C[C@H]5CN6)n4)ncc3s2)c1 [Example 431] | < 100 nM | 100 to 1000 nM | – | – | < 100 nM
Fc1cccc(F)c1-c1nc2cc(Nc3ccc4c(c3)CC[C@@H](N3C5COCC3C5)CC4)ncc2s1 [Example 329] | – | 5000 to 25000 nM | – | – | 100 to 1000 nM
Cc1ccc(Nc2cc3nc(-c4ncccc4C)sc3cn2)nc1CN1CCCC1 [Example 41, 5-Methyl-N-[2-(3-methylpyridin-2-yl)-[1,3]thiazolo[5,4-c]pyridin-6-yl]-6-[(pyrrolidin-1-yl)methyl]pyridin-2-amine] | – | – | < 100 nM | 1000 to 5000 nM | –

Results, then the molecule that gave them:

IC50 (HPK1; [2]) | IC50 [1, 3] | IC50 (HPK1; [4]) | IC50 [1, 5] | IC50 (HPK1; [6]) | Compound
– | – | < 100 nM | 100 to 1000 nM | – | CN(C)Cc1nc(Nc2cc3nc(-c4c(F)cccc4Cl)sc3cn2)ccc1N1CCOCC1 [Example 20, N-[2-(2-Chloro-6-fluorophenyl)-[1,3]thiazolo[5,4-c]pyridin-6-yl]-6-[(dimethylamino)methyl]-5-(morpholin-4-yl)pyridin-2-amine]
< 100 nM | 100 to 1000 nM | – | – | – | Cc1cc(Nc2cc3nc(-c4cccc(C(=O)N(C)[C@@H](C)CO)c4)sc3cn2)nc(N2C[C@@H]3C[C@H]2CN3C)n1 [Example 561]
– | – | < 100 nM | < 100 nM | – | Cn1ccnc1-c1nc2cc(Nc3ccc(C4CCOCC4)c(CN4CCCC4)n3)ncc2s1 [Example 217, N-[2-(1-Methyl-1H-imidazol-2-yl)-[1,3]thiazolo[5,4-c]pyridin-6-yl]-5-(oxan-4-yl)-6-[(pyrrolidin-1-yl)methyl]pyridin-2-amine]
– | – | < 100 nM | 1000 to 5000 nM | – | Cc1ccc(Nc2cc3nc(-c4ncccc4C)sc3cn2)nc1CN1CCC[C@@H]1CO [Example 49, [(2R)-1-[(3-Methyl-6-{[2-(3-methylpyridin-2-yl)-[1,3]thiazolo[5,4-c]pyridin-6-yl]amino}pyridin-2-yl)methyl]pyrrolidin-2-yl]methanol]
– | – | < 100 nM | > 5000 nM | – | Cc1cccnc1-c1nc2cc(Nc3ccc(C)c(N4CC[C@@H](N)C4)n3)ncc2s1 [Example 74, 6-[(3R)-3-Aminopyrrolidin-1-yl]-5-methyl-N-[2-(3-methylpyridin-2-yl)-[1,3]thiazolo[5,4-c]pyridin-6-yl]pyridin-2-amine]
< 100 nM | 100 to 1000 nM | – | – | – | Cc1cc(Nc2cc3nc(-c4cccc(C(=O)N(C)C)c4F)sc3cn2)nc(N2C[C@@H]3C[C@H]2CN3C)n1 [Example 399]
– | – | < 100 nM | 100 to 1000 nM | – | Cc1cccnc1-c1nc2cc(Nc3cccc(N4C[C@@H]5C[C@H]4CN5)n3)ncc2s1 [Example 78, 6-[(1S,4S)-2,5-Diazabicyclo[2.2.1]heptan-2-yl]-N-[2-(3-methylpyridin-2-yl)-[1,3]thiazolo[5,4-c]pyridin-6-yl]pyridin-2-amine]
< 100 nM | 100 to 1000 nM | – | – | – | COCCN1C[C@@H]2C[C@H]1CN2c1nc(C)cc(Nc2cc3nc(-c4cccc(C(=O)N(C)C)c4)sc3cn2)n1 [Example 506]
– | – | < 100 nM | 100 to 1000 nM | – | Cc1ccnn1-c1nc2cc(Nc3ccc(N4CCC(F)(F)C4)c(C(C)(C)N)n3)ncc2s1 [Example 273, 6-(2-Aminopropan-2-yl)-5-(3,3-difluoropyrrolidin-1-yl)-N-[2-(5-methyl-1H-pyrazol-1-yl)-[1,3]thiazolo[5,4-c]pyridin-6-yl]pyridin-2-amine]
– | – | < 100 nM | 100 to 1000 nM | – | Cc1cc(-c2nc3cc(Nc4ccc(C5CCOCC5)c(CN5CCC(F)(F)C5)n4)ncc3s2)ccn1 [Example 220, 6-[(3,3-Difluoropyrrolidin-1-yl)methyl]-N-[2-(2-methylpyridin-4-yl)-[1,3]thiazolo[5,4-c]pyridin-6-yl]-5-(oxan-4-yl)pyridin-2-amine]
– | – | < 100 nM | 100 to 1000 nM | – | Cc1cccc(F)c1-c1nc2cc(Nc3ccc(C4CCOC4)c(CN(C)C)n3)ncc2s1 (stereo not shown) [Example 255, 6-[(Dimethylamino)methyl]-N-[2-(2-fluoro-6-methylphenyl)-[1,3]thiazolo[5,4-c]pyridin-6-yl]-5-(oxolan-3-yl)pyridin-2-amine]
– | – | < 100 nM | > 5000 nM | – | NC1(c2nc(Nc3cc4nc(-c5c(F)cccc5F)sc4cn3)ccc2N2CCC(F)(F)C2)CC1 [Example 274, 6-(1-Aminocyclopropyl)-N-[2-(2,6-difluorophenyl)-[1,3]thiazolo[5,4-c]pyridin-6-yl]-5-(3,3-difluoropyrrolidin-1-yl)pyridin-2-amine]
– | < 100 nM | – | – | < 100 nM | Cc1cccnc1-c1nc2cc(Nc3ccc(C4CCOCC4)c(N4C[C@@H]5C[C@H]4CN5C)n3)ncc2s1 [Example 433]
